What was measured:
Type in all cases: cell-based
[1] = system: IFN-α secretion from PBMC under R848 stimulation; test: R848-induced release of IFNα from human peripheral blood monocytes (PBMC); parameters: unit not given here; details: R848 5 μM, 24 h, ELISA
Method: (§1) Example 4: Inhibitory Effect of Compounds of the Present Invention on R848-Induced Release of IFNα and TNFα from Human Peripheral Blood Monocytes
(§2) The compounds of the present application were detected for their inhibitory effect on the production of peripheral blood monocytes. The peripheral blood monocytes were treated in vitro with the ligand-drug conjugates at different concentrations, and IFNα and TNFα produced by the peripheral blood monocytes were quantitatively detected after a certain time. The compounds of the present invention were evaluated for in-vitro activity.
(§3) The cryopreserved human PBMC cells were resuspended in a complete medium and counted, and the cell suspension was adjusted to 2.5×10^6 cells/mL with the culture medium. After the suspension was centrifuged to collect the cells the next day, the cells were resuspended using fresh culture medium. Test compounds were diluted to 4-fold final concentration in cell culture medium, 50 μL of the compounds were added into a 96-well cell plate, and 100 μL of diluted cells (800,000 cells/well) were added into each well of the 96-well plate containing the compounds, followed by addition of 50 μL R848 to a final concentration of 5 μM. The cell plate was incubated at 37° C. with 5% CO2 for 24 h. The supernatant was collected, and the TNF-α and IFN-α concentration levels in the supernatant were detected using an ELISA kit. TNF-α concentration assay was performed using Dakewe TNF-α ELISA kit (Cat #1117202), 100 μL of the serially-diluted cytokine standard was added into each well, 100 μL of the above supernatant diluted 10-fold was added into each well, and 100 μL of 1× dilution buffer R was added into each blank control well. 50 μL of biotinylated antibody working solution was added into each well. After mixing well, the plate was covered with a plate-sealing membrane and incubated at room temperature for 3 h. The plate was washed for 3 times: the liquid in each well was discarded, and 300 μL of 1× washing buffer working solution was added into each well; after 1 minute of residence, the liquid in the wells was discarded. The procedure was repeated for 3 times. 100 μL of Streptavidin-HRP working solution was added into each well. The plate was covered with the plate-sealing membrane and incubated at room temperature for 20 min. The plate was washed for 3 times, 100 μL of TMB liquid was added into each well, and the plate was incubated at room temperature (18-25° C.) in the dark for 25 min. The reaction was stopped by adding 100 μL stop solution rapidly to each well. The reading at a wavelength of 450 nm was detected by an M2e instrument within 10 min after termination.
IFN-α concentration assay was performed using Dakewe IFN-α ELISA kit (Cat #1110012), 100 μL of the serially-diluted cytokine standard was added into each well, 100 μL of the above supernatant diluted 2-fold was added into each well, and 100 μL of 1× dilution buffer R was added into each blank control well. 50 μL of biotinylated antibody working solution was added into each well. After mixing well, the plate was covered with a plate-sealing membrane and incubated at room temperature for 3 h. The plate was washed for 3 times: the liquid in each well was discarded, and 300 μL of 1× washing buffer working solution was added into each well; after 1 minute of residence, the liquid in the wells was discarded. The procedure was repeated for 3 times. 100 μL of Streptavidin-HRP working solution was added into each well. The plate was covered with the plate-sealing membrane and incubated at room temperature for 20 min. The plate was washed for 3 times, 100 μL of TMB liquid was added into each well, and the plate was incubated at room temperature (18-25° C.) in the dark for 25 min. The reaction was stopped by adding 100 μL stop solution rapidly to each well. The reading at a wavelength of 450 nm was detected by an M2e instrument within 10 min after termination. […]

[2] = system: TNF-α secretion from PBMC under R848 stimulation; test: R848-induced release of TNFα from human peripheral blood monocytes (PBMC); parameters: unit not given here; details: R848 5 μM, 24 h, ELISA
Method: as §1, §2, §3
The contents of TNF-α and IFN-α were calculated from the OD450 values (Mean±standard deviation).

glucocorticoid receptor = molecular target: T1, glucocorticoid receptor (Homo sapiens, UniProt P04150); test: Activity assay of glucocorticoid receptor reporter gene GRE; details: HEK293 cells transfected with pGL5 and pBIND-GR; 24 h; Dual-Glo luciferase
T1 construct: host or cells: HEK293
T1 sequence (P04150 1-777): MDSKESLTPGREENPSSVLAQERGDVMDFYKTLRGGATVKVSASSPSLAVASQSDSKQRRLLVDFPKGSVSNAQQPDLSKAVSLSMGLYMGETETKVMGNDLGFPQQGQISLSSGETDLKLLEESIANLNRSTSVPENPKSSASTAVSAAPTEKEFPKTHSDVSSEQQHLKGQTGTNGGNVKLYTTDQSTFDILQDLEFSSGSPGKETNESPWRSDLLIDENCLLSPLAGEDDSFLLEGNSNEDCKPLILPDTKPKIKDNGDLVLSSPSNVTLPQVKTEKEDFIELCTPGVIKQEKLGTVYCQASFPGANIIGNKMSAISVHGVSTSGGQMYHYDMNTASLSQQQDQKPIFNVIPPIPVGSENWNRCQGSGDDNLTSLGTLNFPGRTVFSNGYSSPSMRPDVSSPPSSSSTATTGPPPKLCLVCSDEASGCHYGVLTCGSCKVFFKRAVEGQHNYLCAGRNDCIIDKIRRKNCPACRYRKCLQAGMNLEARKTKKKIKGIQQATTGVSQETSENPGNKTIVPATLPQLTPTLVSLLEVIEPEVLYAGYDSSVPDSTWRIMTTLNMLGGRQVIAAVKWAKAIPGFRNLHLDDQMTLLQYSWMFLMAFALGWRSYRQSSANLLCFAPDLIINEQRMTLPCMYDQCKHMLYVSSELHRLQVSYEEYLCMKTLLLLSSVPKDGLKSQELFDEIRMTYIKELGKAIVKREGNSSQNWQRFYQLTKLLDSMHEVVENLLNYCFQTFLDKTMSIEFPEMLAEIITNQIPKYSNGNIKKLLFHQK
Method: HEK293 cells were cultured in DMEM+10% FBS medium in a carbon dioxide incubator humidified at 37° C. with 5% carbon dioxide.
HEK293 cells were digested with trypsin, and the HEK293 cell resuspension was adjusted to 200,000 cell/mL in medium (96 well plate: 100 μL/well).
Transfection reagent mixtures were prepared according to Tables 5a and 5b below, mixed well and left to stand at room temperature for 20 min.
The prepared transfection mixtures were added to 10 mL of the cell density-adjusted resuspension, mixed well by turning the mixtures upside down, and seeded into a 96-well plate at a volume of 100 μL/well.
The 96-well plate was incubated in a humidified incubator at 37° C. with 5% carbon dioxide for 24 h.
The test plate was placed back into the incubator and incubated for 24 h.
The test plate was detected using the Dual-Glo Luciferase Assay System kit from Promega, and the fluorescence signal of Firefly Luciferase and the fluorescence signal of Renilla Luciferase were read using Enspire, respectively.
The final measurement value was a normalized value “F/R” obtained by dividing the Firefly Luciferase fluorescent signal by the Renilla Luciferase fluorescent signal.
The data were copied and pasted into Excel, and the activation rate was obtained through an equation.
The data were imported into MS Excel and subjected to curve fitting by using XLFit excel add-in version 5.4.0.8 to obtain an EC50 value.
Y is the agonism and X is the concentration of the compound.

Row | Structure (SMILES) | IFN-α content in supernatant (Mean±standard deviation) ([1]; compound 4 nM) | IFN-α content in supernatant (Mean±standard deviation) ([1]; compound 20 nM) | IFN-α content in supernatant (Mean±standard deviation) ([1]; compound 100 nM) | TNF-α content in supernatant (Mean±standard deviation) ([2]; compound 4 nM) | TNF-α content in supernatant (Mean±standard deviation) ([2]; compound 20 nM) | TNF-α content in supernatant (Mean±standard deviation) ([2]; compound 100 nM) | EC50 (glucocorticoid receptor)
1 | C[C@]12C=CC(=O)C=C1CC[C@@H]1[C@@H]2[C@@H](O)C[C@@]2(C)[C@H]1C[C@H]1O[C@@H](c3ccn(Cc4cccc(N)c4)c3)O[C@]12C(=O)CO [Compound 1] | 228.3 ± 0.2 | 0 ± 0 | 0 ± 0 | 1187.6 ± 87.4 | 611.9 ± 10.7 | 592.8 ± 92.1 | 
2 | C[C@]12C=CC(=O)C=C1CC[C@@H]1[C@@H]2[C@@H](O)C[C@@]2(C)[C@H]1C[C@H]1O[C@@H](c3ccn(Cc4ccc(N)cc4)c3)O[C@]12C(=O)CO [Compound 2] | 108 ± 11 | 11.1 ± 11.1 | 0 ± 0 | 898.3 ± 27.7 | 584.4 ± 171.1 | 623.3 ± 238.4 | 0.15 nM

From patent publication US20250179114A1, “Anti-Inflammatory Compound and Use Thereof” (DUALITY BIOLOGICS (SUZHOU) CO., LTD., priority 2021, published 2025)
